Data published in DBAASP.
Converted amounts (≈) assume the structure as drawn.

Key:
Assay in all cases: ≥ marks a high value that may be exact or a test limit, other limits are often not marked, values filed in µg/mL are converted to µM
[1] = tested on: Micrococcus luteus CVCC 28001
[2] = tested on: Listeria monocytogenes CVCC 1599
[3] = tested on: Escherichia coli K88
[4] = tested on: Escherichia coli CVCC 245
[5] = tested on: Staphylococcus aureus CMCC 26003
[6] = tested on: Staphylococcus aureus ATCC 25923
[7] = tested on: Escherichia coli B
[8] = tested on: Micrococcus luteus CCM 144
[9] = tested on: Candida albicans F7-39/IDE99
[10] = tested on: Staphylococcus aureus
[11] = tested on: Staphylococcus epidermidis
[12] = tested on: Bacillus subtilis 168
[13] = tested on: Pseudomonas aeruginosa ATCC 27853
[14] = tested on: Pseudomonas aeruginosa
[15] = tested on: Staphylococcus aureus 1
[16] = tested on: Staphylococcus aureus ATCC 43300
[17] = tested on: Streptococcus agalactiae
[18] = tested on: Pseudomonas aeruginosa ATCC 9027
[19] = tested on: Mycobacterium tuberculosis
[20] = tested on: Candida albicans
[21] = tested on: Escherichia coli ATCC 25922
[22] = tested on: Candida glabrata
[23] = tested on: Mycobacterium tuberculosis H37Rv
[24] = tested on: Candida albicans CCARM 14021
[25] = tested on: Candida albicans CCARM 14022
[26] = tested on: Candida albicans CCARM 14020
[27] = tested on: Candida albicans SC5314
[28] = tested on: Enterococcus faecalis ATCC 29212
[29] = tested on: Candida albicans ATCC 90028
[30] = tested on: Candida parapsilosis ATCC 22019
[31] = tested on: Klebsiella pneumoniae ATCC 13883
[32] = tested on: Acinetobacter baumannii ATCC 19606
[33] = tested on: Listeria ivanovii
[34] = tested on: Staphylococcus aureus ATCC BAA-44
[35] = tested on: Vibrio alginolyticus
[36] = tested on: Trichomonas vaginalis T1
[37] = tested on: Vibrio vulnificus BCRC 12905
[38] = tested on: Trichomonas vaginalis ATCC 30001
[39] = tested on: Listeria monocytogenes BCRC 14845
[40] = tested on: Trichomonas vaginalis ATCC 50143
[41] = tested on: Escherichia coli DH5alpha
[42] = tested on: Staphylococcus xylosus
[43] = tested on: Lactiplantibacillus plantarum 965
[44] = tested on: Latilactobacillus sakei NCDO 2714

How did the MIC [1] turn out when `CC[C@H](C)[C@H](NC(=O)[C@H](CCCCN)NC(=O)[C@H](CCCCN)NC(=O)[C@H](Cc1ccccc1)NC(=O)[C@H](CC(C)C)NC(=O)[C@H](CCCCN)NC(=O)[C@H](Cc1c[nH]c2ccccc12)NC(=O)[C@@H](N)CCCCN)C(=O)N[C@@H](Cc1ccccc1)C(=O)N[C@@H](CCCCN)C(=O)N[C@@H](CCCN=C(N)N)C(=O)N[C@H](C(=O)N[C@H](C(=O)N[C@@H](CCC(N)=O)C(=O)N[C@@H](CCCN=C(N)N)C(=O)N[C@H](C(=O)N[C@@H](CCCCN)C(=O)N[C@@H](CC(=O)O)C(=O)N[C@@H](Cc1ccccc1)C(=O)N[C@@H](CC(C)C)C(=O)N[C@@H](CCCN=C(N)N)C(=O)N[C@@H](CC(N)=O)C(=O)O)[C@@H](C)CC)C(C)C)[C@@H](C)CC` [KWKLFKKIFKRIVQRIKDFLRN] was run?
The MIC was 5.51 µM (≈ 16 µg/mL).

What about the MIC [2] of the same compound?
The MIC was 0.688 µM (≈ 2 µg/mL).

What about the MIC [3] of the same compound?
Its MIC is 2.75 µM (≈ 8 µg/mL).

And the MIC [4]?
The MIC was 2.41 µM (≈ 7 µg/mL).

And the MIC [5]?
Its MIC is 2.41 µM (≈ 7 µg/mL).

What about the MIC [6] of the same compound?
Its MIC is 0.688 µM (≈ 2 µg/mL).

What does the source list for `CC[C@H](C)[C@H](NC(=O)CN)C(=O)N[C@@H](CCSC)C(=O)N[C@H](C(=O)N[C@@H](CO)C(=O)N[C@@H](CC(C)C)C(=O)N[C@@H](CCSC)C(=O)N[C@@H](CCCCN)C(=O)N[C@@H](CCCCN)C(=O)N[C@@H](CC(C)C)C(=O)N[C@@H](C)C(=O)N[C@@H](C)C(=O)N[C@@H](Cc1cnc[nH]1)C(=O)N[C@H](C(=O)N[C@@H](C)C(=O)N[C@@H](CCCCN)C(N)=O)[C@@H](C)CC)[C@@H](C)CC` [GIMISLMKKLAAHIAK]?
MIC [7]: 12 µM (≈ 20.7 µg/mL); MIC [8]: 3 µM (≈ 5.17 µg/mL); MIC [9]: 12 µM (≈ 20.7 µg/mL); MIC [10]: 65 µM (≈ 112 µg/mL); MIC [11]: 8.8 µM (≈ 15.2 µg/mL); MIC [12]: 7 µM (≈ 12.1 µg/mL); MIC [13]: 47 µM (≈ 81 µg/mL); MIC [14]: > 100 µM; MIC [15]: ≥ 35 µM; MIC [16]: 43 µM (≈ 74.1 µg/mL)

Which results are given for `CC[C@H](C)[C@H](NC(=O)[C@H](CCCCN)NC(=O)[C@H](CCCCN)NC(=O)[C@@H](NC(=O)[C@H](C)NC(=O)[C@H](CO)NC(=O)[C@@H](NC(=O)[C@H](C)NC(=O)[C@H](CO)NC(=O)[C@@H]1CCCN1C(=O)[C@@H](NC(=O)[C@H](CC(C)C)NC(=O)[C@H](CO)NC(=O)[C@H](CC(C)C)NC(=O)[C@H](CC(C)C)NC(=O)[C@H](Cc1ccccc1)NC(=O)[C@@H](N)Cc1ccccc1)[C@@H](C)CC)[C@@H](C)CC)[C@@H](C)CC)C(N)=O` [FFLLSLIPSAISAIKKI]?
MIC [17]: 5 µM (≈ 9.3 µg/mL); MIC [18]: 5 µM (≈ 9.3 µg/mL); MIC [19]: 8.6 µM (≈ 16 µg/mL); MIC [20]: 6.25 µM (≈ 11.6 µg/mL); MIC [21]: 24 µM (≈ 44.6 µg/mL); MIC [6]: 5 µM (≈ 9.3 µg/mL); MIC [22]: ≥ 50 µM; MIC [23]: 5.4 µM (≈ 10 µg/mL)

Which results are given for `CC(C)C[C@H](NC(=O)[C@@H](N)Cc1c[nH]c2ccccc12)C(=O)N[C@@H](CC(N)=O)C(=O)N[C@@H](C)C(=O)N[C@@H](CCCCN)C(=O)N[C@@H](CCCN=C(N)N)C(=O)N[C@@H](Cc1cnc[nH]1)C(=O)N[C@@H](Cc1cnc[nH]1)C(=O)NCC(=O)N[C@@H](Cc1ccc(O)cc1)C(=O)N[C@@H](CCCCN)C(=O)N[C@@H](CCCN=C(N)N)C(=O)N[C@@H](CCCCN)C(=O)N[C@@H](Cc1ccccc1)C(=O)N[C@@H](Cc1cnc[nH]1)C(N)=O` [WLNAKRHHGYKRKFH]?
MIC [24]: 5.72 µM (≈ 11.3 µg/mL); MIC [25]: 16.2 µM (≈ 32 µg/mL); MIC [26]: 2.86 µM (≈ 5.65 µg/mL); MIC [27]: 2.86 µM (≈ 5.65 µg/mL)

Which results are given for `CC(C)C[C@H](NC(=O)[C@H](CCCN=C(N)N)NC(=O)CNC(=O)[C@H](Cc1ccccc1)NC(=O)[C@@H](N)Cc1ccccc1)C(=O)N[C@@H](CCCCN)C(=O)N[C@@H](CO)C(=O)N[C@H](C(=O)N[C@@H](Cc1c[nH]c2ccccc12)C(=O)N[C@@H](CO)C(=O)N[C@@H](C)C(=O)N[C@H](C(=O)N[C@@H](CCCCN)C(=O)N[C@@H](Cc1cnc[nH]1)C(=O)NCC(=O)N[C@@H](Cc1c[nH]c2ccccc12)C(=O)N[C@@H](CCCCN)C(=O)N[C@@H](C)C(=O)N[C@@H](C)C(=O)N[C@@H](CCCCN)C(=O)N[C@@H](CO)C(=O)N[C@@H](CCCN=C(N)N)C(=O)O)C(C)C)C(C)C` [FFGRLKSVWSAVKHGWKAAKSR]?
MIC [28]: 12.5 µM (≈ 31.8 µg/mL); MIC [29]: 25 µM (≈ 63.7 µg/mL); MIC [13]: 6 µM (≈ 15.3 µg/mL); MIC [30]: ≥ 50 µM; MIC [31]: 6 µM (≈ 15.3 µg/mL); MIC [32]: 3 µM (≈ 7.64 µg/mL); MIC [33]: 3 µM (≈ 7.64 µg/mL); MIC [34]: 3 µM (≈ 7.64 µg/mL); MIC [21]: 4.24 µM (≈ 10.8 µg/mL); MIC [6]: 3 µM (≈ 7.64 µg/mL)

With `CSCC[C@H](NC(=O)[C@H](CCCN=C(N)N)NC(=O)CNC(=O)[C@H](CCCCN)NC(=O)[C@H](Cc1ccc(O)cc1)NC(=O)[C@H](Cc1ccc(O)cc1)NC(=O)[C@@H](NC(=O)[C@H](CCC(N)=O)NC(=O)[C@H](Cc1ccccc1)NC(=O)[C@H](CCCN=C(N)N)NC(=O)[C@H](CCCCN)NC(=O)[C@H](CC(C)C)NC(=O)[C@H](Cc1ccc(O)cc1)NC(=O)[C@@H]1CCCN1C(=O)[C@H](CCCCN)NC(=O)[C@@H](NC(=O)[C@@H](NC(=O)[C@H](Cc1ccccc1)NC(=O)[C@H](CCCCN)NC(=O)[C@H](CS)NC(=O)[C@H](CCC(=O)O)NC(C)=O)[C@@H](C)O)C(C)C)C(C)C)C(=O)N[C@@H](Cc1c[nH]c2ccccc12)C(=O)N[C@@H](CS)C(=O)N1CCC[C@H]1C(N)=O` [ECKFTVKPYLKRFQVYYKGRMWCP] as the compound, how does the MIC [35] read?
Its MIC is no less than 32.6 µM.

What about the MIC [36] of the same compound?
Its MIC is no less than 65.1 µM.

What about the MIC [37] of the same compound?
The MIC was no less than 32.6 µM.

What about the MIC [38] of the same compound?
Its MIC is no less than 32.6 µM.

What about the MIC [39] of the same compound?
The MIC was 8.14 µM (≈ 25.3 µg/mL).

And the MIC [40]?
Its MIC is 8.14 µM (≈ 25.3 µg/mL).

Which results are given for `NC(N)=NCCC[C@H](NC(=O)[C@H](CCCN=C(N)N)NC(=O)[C@H](CCCN=C(N)N)NC(=O)[C@H](Cc1ccccc1)NC(=O)[C@H](Cc1ccccc1)NC(=O)[C@H](Cc1ccccc1)NC(=O)[C@H](Cc1ccccc1)NC(=O)[C@H](Cc1ccccc1)NC(=O)[C@H](CCCN=C(N)N)NC(=O)[C@H](CCCN=C(N)N)NC(=O)[C@@H](N)CCCN=C(N)N)C(=O)O` [RRRFFFFFRRR]?
MIC [41]: 4 µM (≈ 6.76 µg/mL); MIC [42]: 0.5 µM (≈ 0.846 µg/mL)

With `CSCC[C@H](NC(=O)[C@H](CCC(N)=O)NC(=O)[C@H](CC(C)C)NC(=O)[C@H](CO)NC(=O)[C@@H](N)Cc1ccc(O)cc1)C(=O)O` [YSLQM] as the compound, how does the MIC [43] read?
Its MIC is 10 µM (≈ 6.41 µg/mL).

What about the MIC [44] of the same compound?
The MIC was 1 µM (≈ 0.641 µg/mL).
